Reference: ChEMBL document CHEMBL1148572, “1-((S)-2-aminopropyl)-1H-indazol-6-ol: a potent peripherally acting 5-HT2 receptor agonist with ocular hypotensive activity” (J Med Chem, 2006)

How the values were obtained:
MDR1 (P-gp) [1] = assay: Permeability from basolateral to apical side of the MDCK cell transfected with human MDR1; format: ADME, cell-based
[2] = molecular target: T1, 5-hydroxytryptamine receptor 2A (Rattus norvegicus, UniProt P14842); format: tissue-based, Cerebral cortex
[3] = molecular target: 5-hydroxytryptamine receptor 2A (Rattus norvegicus) (UniProt P14842); assay: (§1) Activity against 5HT2A mediated intracellular calcium mobilization by FLIPR in rat vascular smooth muscle cells; format: functional, cell-based
Sequence of 5-hydroxytryptamine receptor 2A (Rattus norvegicus) (P14842 whole entry): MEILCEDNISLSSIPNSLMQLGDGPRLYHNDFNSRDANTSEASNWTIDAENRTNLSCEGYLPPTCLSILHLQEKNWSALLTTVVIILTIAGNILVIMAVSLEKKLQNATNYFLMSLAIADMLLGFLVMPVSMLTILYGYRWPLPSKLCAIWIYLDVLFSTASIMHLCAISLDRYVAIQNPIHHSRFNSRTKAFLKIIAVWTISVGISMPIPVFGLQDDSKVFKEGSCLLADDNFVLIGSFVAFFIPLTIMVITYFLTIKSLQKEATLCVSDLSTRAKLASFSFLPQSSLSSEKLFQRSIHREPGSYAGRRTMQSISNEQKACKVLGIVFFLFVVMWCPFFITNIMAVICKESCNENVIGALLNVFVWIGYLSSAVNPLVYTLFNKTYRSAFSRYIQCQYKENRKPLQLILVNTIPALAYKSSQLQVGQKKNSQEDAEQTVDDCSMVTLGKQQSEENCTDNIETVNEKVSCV

[4] = molecular target: T1, 5-hydroxytryptamine receptor 2A; assay: as §1; format: functional, cell-based
[5] = Distribution coefficient at pH 7.4; format: physicochemical; settings: octanol/water
MDR1 (P-gp) [6] = assay: Permeability from apical to basolateral side of the MDCK cell transfected with human MDR1; format: ADME, cell-based
[7] = molecular target: T2, 5-hydroxytryptamine receptor 2C (Rattus norvegicus) (UniProt P08909); assay: Activity against recombinant rat 5HT2C mediated intracellular calcium mobilization by FLIPR in SR3T3 cells
T2 sequence (whole entry): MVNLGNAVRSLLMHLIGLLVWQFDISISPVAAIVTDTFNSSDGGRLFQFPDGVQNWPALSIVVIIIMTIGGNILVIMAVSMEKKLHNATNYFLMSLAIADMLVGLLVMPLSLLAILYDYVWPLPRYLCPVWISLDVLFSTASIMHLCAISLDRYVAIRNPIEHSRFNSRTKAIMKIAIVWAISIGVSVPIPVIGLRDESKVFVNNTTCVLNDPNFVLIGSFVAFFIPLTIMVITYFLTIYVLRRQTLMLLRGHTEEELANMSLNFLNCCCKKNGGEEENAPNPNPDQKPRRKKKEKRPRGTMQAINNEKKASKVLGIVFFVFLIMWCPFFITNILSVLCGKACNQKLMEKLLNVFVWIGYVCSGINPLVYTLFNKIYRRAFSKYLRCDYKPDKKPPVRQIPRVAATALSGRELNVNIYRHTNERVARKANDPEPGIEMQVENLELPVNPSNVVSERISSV

[8] = Half life in phosphate buffer at pH 7.4 in 45 degC; format: ADME
[9] = molecular target: 5-hydroxytryptamine receptor 2A (Homo sapiens, UniProt P28223); format: cell-based, CHO
Sequence of 5-hydroxytryptamine receptor 2A (Homo sapiens, UniProt P28223) (P28223 whole entry): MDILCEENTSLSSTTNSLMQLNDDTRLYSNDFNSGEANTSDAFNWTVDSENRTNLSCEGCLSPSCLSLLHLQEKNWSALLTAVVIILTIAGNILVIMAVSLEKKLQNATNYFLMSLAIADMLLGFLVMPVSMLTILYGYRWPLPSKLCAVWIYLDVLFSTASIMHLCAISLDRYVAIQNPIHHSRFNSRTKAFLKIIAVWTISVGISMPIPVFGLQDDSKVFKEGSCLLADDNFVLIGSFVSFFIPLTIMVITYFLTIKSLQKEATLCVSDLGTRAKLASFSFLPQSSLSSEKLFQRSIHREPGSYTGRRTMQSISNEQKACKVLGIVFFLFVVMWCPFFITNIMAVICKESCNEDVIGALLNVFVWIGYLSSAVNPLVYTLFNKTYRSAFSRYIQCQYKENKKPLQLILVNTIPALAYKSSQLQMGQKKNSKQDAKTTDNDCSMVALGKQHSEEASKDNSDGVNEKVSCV

[10] = Half life in phosphate buffer at pH 7.4 in 25 degC; format: ADME
[11] = molecular target: 5-hydroxytryptamine receptor 2B (Rattus norvegicus, UniProt P30994); assay: Activity against 5HT2B receptor in longitudinal stomach fundus strips in wistar rats
Sequence of 5-hydroxytryptamine receptor 2B (Rattus norvegicus, UniProt P30994) (P30994 whole entry): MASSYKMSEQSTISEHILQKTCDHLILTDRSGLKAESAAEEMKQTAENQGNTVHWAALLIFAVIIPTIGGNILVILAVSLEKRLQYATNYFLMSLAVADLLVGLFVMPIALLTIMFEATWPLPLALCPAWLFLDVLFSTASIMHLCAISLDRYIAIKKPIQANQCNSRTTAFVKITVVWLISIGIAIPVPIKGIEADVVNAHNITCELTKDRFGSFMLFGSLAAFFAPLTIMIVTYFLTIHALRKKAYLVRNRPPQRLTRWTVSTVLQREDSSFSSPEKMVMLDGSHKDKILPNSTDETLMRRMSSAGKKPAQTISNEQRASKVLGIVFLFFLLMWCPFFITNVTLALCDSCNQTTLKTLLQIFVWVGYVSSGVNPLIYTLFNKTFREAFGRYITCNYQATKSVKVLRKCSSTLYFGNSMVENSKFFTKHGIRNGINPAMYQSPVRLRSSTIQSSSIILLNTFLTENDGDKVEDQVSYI

[12] = molecular target: T3, 5-hydroxytryptamine receptor 2C (Rattus norvegicus, UniProt P08909); assay: Activity against recombinant rat 5HT2C mediated intracellular calcium mobilization by FLIPR in SR3T3 cells
T3 sequence (P08909 whole entry): T2 sequence (whole entry)

MDR1 (P-gp) [13] = assay: in vitro; settings: human, MDCK-MDR1
Description: Ratio of permeability from basolateral to apical over apical to basolateral side of the MDCK cell transfected with human MDR1

[14] = molecular target: 5-hydroxytryptamine receptor 2B (Homo sapiens, UniProt P41595); assay: biochemical
Sequence of 5-hydroxytryptamine receptor 2B (Homo sapiens, UniProt P41595) (P41595 whole entry): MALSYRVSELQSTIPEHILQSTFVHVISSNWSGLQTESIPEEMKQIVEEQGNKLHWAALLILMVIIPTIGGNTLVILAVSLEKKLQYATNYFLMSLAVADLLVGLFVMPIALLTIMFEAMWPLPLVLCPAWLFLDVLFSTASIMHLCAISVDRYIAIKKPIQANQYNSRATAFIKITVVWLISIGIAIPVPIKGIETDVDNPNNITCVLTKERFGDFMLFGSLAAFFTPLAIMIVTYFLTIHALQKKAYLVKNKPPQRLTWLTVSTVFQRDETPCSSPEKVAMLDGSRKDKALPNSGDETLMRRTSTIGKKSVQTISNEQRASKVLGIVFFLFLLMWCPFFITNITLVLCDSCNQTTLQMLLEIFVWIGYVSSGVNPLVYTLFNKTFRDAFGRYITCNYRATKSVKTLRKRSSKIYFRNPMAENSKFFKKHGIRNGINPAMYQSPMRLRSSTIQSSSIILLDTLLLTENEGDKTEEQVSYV
Description: Displacement of [125I]DOI from cloned human 5HT2B receptor expressed in CHO cells

[15] = molecular target: T4, 5-hydroxytryptamine receptor 2C (Homo sapiens, UniProt P28335); assay: biochemical
T4 sequence (P28335 whole entry): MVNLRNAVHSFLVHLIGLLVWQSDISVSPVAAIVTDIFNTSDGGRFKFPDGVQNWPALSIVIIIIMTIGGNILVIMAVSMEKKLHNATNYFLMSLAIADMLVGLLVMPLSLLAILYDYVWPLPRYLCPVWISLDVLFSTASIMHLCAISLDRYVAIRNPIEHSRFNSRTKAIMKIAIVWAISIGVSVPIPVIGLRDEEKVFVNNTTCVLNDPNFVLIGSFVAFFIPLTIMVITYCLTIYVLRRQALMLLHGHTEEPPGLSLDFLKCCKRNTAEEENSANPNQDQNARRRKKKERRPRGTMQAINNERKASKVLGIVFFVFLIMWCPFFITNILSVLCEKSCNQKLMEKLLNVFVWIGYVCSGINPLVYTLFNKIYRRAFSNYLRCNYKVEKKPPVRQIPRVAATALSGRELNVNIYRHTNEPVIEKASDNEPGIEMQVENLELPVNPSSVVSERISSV
Description: Displacement of [125I]DOI from cloned human 5HT2C receptor expressed in CHO cells

[16] = molecular target: T5, 5-hydroxytryptamine receptor 1A (Homo sapiens, UniProt P08908); assay: Agonistic activity at cloned human 5HT1A receptor expressed in CHO cells by inhibition of forskolin-induced cAMP production; format: functional, cell-based
T5 sequence (P08908 whole entry): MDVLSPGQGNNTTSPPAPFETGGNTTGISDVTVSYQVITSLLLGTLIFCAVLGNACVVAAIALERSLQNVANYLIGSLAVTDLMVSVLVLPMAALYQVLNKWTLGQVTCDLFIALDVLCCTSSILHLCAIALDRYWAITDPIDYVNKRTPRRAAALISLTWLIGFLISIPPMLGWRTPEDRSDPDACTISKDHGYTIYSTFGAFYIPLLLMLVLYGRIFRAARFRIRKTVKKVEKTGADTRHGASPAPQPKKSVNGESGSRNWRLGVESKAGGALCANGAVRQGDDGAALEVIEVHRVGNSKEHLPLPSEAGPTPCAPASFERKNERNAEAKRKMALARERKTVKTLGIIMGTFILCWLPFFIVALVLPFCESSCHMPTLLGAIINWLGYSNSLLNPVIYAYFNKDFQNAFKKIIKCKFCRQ

[17] = molecular target: 5-hydroxytryptamine receptor 7 (Homo sapiens, UniProt P34969); assay: Activity at 5HT7 receptor expressed in human corneal epithelial CEPI-17-CL4 cells by adenylyl cyclase assay; format: functional, cell-based, Cornea
Sequence of 5-hydroxytryptamine receptor 7 (P34969 whole entry): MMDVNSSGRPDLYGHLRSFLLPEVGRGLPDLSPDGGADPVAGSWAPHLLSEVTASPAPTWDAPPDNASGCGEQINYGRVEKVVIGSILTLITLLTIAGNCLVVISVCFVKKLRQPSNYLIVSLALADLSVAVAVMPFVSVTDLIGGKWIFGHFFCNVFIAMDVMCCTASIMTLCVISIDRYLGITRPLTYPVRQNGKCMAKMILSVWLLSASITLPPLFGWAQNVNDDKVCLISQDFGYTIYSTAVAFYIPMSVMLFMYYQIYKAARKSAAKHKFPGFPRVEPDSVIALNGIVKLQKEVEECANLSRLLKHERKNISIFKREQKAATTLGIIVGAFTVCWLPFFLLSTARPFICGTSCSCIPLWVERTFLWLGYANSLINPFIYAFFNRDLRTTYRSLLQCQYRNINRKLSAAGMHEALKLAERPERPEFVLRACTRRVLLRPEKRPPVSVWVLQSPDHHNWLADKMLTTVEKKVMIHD

[18] = molecular target: T6, Alpha-2A adrenergic receptor (Homo sapiens, UniProt P08913); assay: Activity at adrenergic alpha-2A receptor expressed in human clonic adenocarcinoma HT29 cell by adenylyl cyclase assay; format: functional, cell-based, HT-29
T6 sequence (P08913 whole entry): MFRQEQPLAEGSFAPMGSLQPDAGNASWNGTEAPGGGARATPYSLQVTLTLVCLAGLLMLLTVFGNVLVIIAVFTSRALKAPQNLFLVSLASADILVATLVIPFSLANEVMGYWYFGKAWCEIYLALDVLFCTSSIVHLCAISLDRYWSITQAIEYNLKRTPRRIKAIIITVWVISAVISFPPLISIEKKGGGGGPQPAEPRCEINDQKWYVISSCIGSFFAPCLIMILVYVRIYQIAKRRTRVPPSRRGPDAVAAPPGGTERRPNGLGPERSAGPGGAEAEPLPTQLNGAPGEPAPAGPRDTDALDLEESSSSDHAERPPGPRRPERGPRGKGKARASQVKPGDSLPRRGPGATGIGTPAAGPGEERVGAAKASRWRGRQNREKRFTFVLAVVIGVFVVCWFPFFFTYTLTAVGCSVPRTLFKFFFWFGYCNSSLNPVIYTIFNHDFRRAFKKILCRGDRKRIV

[19] = molecular target: T6, Alpha-2A adrenergic receptor; assay: Activity at adrenergic alpha2A receptor expressed in human clonic adenocarcinoma HT29 cell by […]; format: functional, cell-based, HT-29
[20] = molecular target: Alpha-2B adrenergic receptor (Homo sapiens, UniProt P18089); assay: Activity at adrenergic alpha-2B receptor expressed in opposum kidney OK cell by adenylyl cyclase assay; format: functional, cell-based
Sequence of Alpha-2B adrenergic receptor (P18089 whole entry): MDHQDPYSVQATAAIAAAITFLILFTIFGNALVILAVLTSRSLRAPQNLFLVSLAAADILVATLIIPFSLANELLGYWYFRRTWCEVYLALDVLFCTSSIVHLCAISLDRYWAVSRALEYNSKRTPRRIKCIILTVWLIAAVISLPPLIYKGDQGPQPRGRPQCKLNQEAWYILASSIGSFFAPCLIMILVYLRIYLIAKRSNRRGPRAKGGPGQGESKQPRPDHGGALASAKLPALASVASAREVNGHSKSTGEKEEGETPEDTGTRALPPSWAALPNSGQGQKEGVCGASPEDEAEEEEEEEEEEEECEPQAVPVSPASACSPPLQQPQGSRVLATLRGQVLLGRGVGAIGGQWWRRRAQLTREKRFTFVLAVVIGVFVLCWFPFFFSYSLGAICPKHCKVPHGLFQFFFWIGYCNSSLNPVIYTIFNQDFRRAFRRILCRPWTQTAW

[21] = molecular target: T7, Alpha-2C adrenergic receptor (Homo sapiens, UniProt P18825); assay: Activity at adrenergic Alpha-2C receptor expressed in rat-mouse hybrid […] cell by adenylyl cyclase assay; format: functional, cell-based
T7 sequence (P18825 whole entry): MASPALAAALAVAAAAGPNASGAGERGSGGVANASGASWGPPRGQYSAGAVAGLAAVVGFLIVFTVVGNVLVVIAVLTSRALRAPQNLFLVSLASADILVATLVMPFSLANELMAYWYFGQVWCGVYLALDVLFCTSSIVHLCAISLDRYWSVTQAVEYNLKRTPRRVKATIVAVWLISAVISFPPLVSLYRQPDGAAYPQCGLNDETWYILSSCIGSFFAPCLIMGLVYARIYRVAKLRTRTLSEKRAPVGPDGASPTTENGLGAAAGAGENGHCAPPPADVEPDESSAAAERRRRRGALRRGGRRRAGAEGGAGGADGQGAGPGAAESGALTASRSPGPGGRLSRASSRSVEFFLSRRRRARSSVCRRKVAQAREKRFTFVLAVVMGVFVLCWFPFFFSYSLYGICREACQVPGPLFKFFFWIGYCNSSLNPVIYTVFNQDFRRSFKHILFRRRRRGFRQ

T1 sequence (P14842 whole entry): as the sequence (P14842 whole entry) above

Row | Compound | Papp B→A (MDR1 (P-gp) [1]) [×10⁻⁶ cm/s] | IC50 [2] [nM] | Emax [3] [%] | EC50 [4] [nM] | logD [5] | Papp A→B (MDR1 (P-gp) [6]) [×10⁻⁶ cm/s] | Emax [7] [%] | Ki [9] [nM] | T1/2 [10] [yr] | EC50 [11] [nM] | EC50 [12] [nM] | Ki [14] [nM] | Ki [15] [nM] | other results
1 | COc1ccc2[nH]cc(CCN(C)C)c2c1 [MEBUFOTENIN] | 14.4 | 9.53 | 70 | 462 | 3.3 | 16.1 | 89 |  |  |  |  |  |  | 
2 | CC(N)Cc1c[nH]c2ccc(O)cc12 (configuration not stated) |  |  | 96 |  |  |  | 100 |  |  |  |  |  |  | T1/2 [8]: 0.071 yr
3 | C[C@H](N)Cn1ncc2ccc(O)c(F)c21 | 1.66 | 0.73 | 80 | 58.1 | 0.394 | 1.11 | 100 | 5.8 | 1.4 | 6.1 | 5.5 | 1.7 | 1 | efflux ratio (MDR1 (P-gp) [13]): 1.5
4 | C[C@@H](N)Cn1ncc2ccc(O)cc21 |  | 2.08 | 61 | 236 |  |  | 97 | 105 |  | 85 | 87.3 | 35 | 34 | EC50 [16]: 2890 nM; EC50 [17]: > 10000 nM; EC50 [18]: > 10000 nM; EC50 [19]: 1990 nM; EC50 [20]: 4710 nM; EC50 [21]: 5660 nM
5 | Cc1c(O)ccc2cnn(C[C@H](C)N)c12 | 3.12 | 0.74 | 89 | 81.3 | 1.28 | 2.49 | 91 | 1.8 | 0.73 | 8.9 | 7.3 | 8.7 | 3.6 | 
6 | C[C@H](N)Cn1ncc2ccc(O)c(Cl)c21 | 4.94 | 0.54 | 87 | 59.7 | 1.09 | 1.65 | 104 | 12 | 4 | 5.9 | 4.9 | 3.8 | 1.2 | efflux ratio (MDR1 (P-gp) [13]): 3
7 | COc1ccc2cnn(C[C@H](C)N)c2c1 | 19.5 | 1.91 | 90 | 54 | 2.08 | 14.1 | 103 | 16 |  | 4.2 | 6.7 | 7.5 | 1.5 | 
8 | COc1ccc2[nH]cc(CC(C)N)c2c1 (configuration not stated) |  | 2 | 96 | 47.5 |  |  | 103 |  |  | 2.7 | 3.1 |  |  | 
9 | C[C@H](N)Cn1ncc2ccc(O)c(I)c21 | 3.46 | 1.68 | 73 | 204 | 3 | 1.22 |  | 21 |  |  |  | 6 | 4.8 | 
10 | NCCc1c[nH]c2ccc(O)cc12 [SEROTONIN] |  |  | 99 |  |  |  | 94 |  |  |  |  |  |  | T1/2 [8]: 0.03 yr
11 | COc1cc(C[C@@H](C)N)c(OC)cc1I | 23.2 | 0.21 | 35 | 19.8 | 2.72 | 12.6 |  |  |  | 11.9 | 30.2 |  |  | 
12 | NCCn1ncc2ccc(O)cc21 | 0.6 | 0.77 | 75 | 74.4 | 0.254 | 0.64 | 104 | 20 | 3.7 | 8.6 | 4.5 | 15 | 9.6 | 
